According to US12371410B2, “Isoxazoline compounds and use thereof” (METISA BIOTECHNOLOGY CO., LTD, priority 2019, dated 2025):

Columns and labels:
Assay type in all cases: in vivo
[1] = system: Leucania separata; test: Insecticidal activity against Leucania separata, Airbrush spraying of corn leaf segments; conditions: Mythimna separata, foliar, 72 h; dose 0.05 mg/L, three days after administration, 3rd instar larvae; read-out: lethality rate to Leucania separata
Protocol: (§1) The compound to be determined was dissolved in a mixed solvent of acetone/methanol (1:1), followed by dilution with water containing 0.1% (wt) Tween 80 to a desired concentration.
(§2) The activities of the respective compounds against Leucania separata, Plutella xylostella, and Chilo suppressalis were determined by Airbrush spraying method.
(§3) The determination method was as follows: Corn leaves were cut into 2 cm long segments; the pressure of Airbrush spraying was 10 psi (about 0.7 kg/cm^2); both sides of each leaf segment were sprayed with 0.5 mL of the compound solution to be tested. After drying in the shade, ten 3nd instar larvae were inoculated for each treatment, and each treatment was replicated 3 times. After treatment, they were cultured in an observation room at a temperature of 25° C. and a relative humidity of 60-70%, and the number of surviving insects was examined and the mortality was calculated three days after administration.

[2] = system: Plutella xylostella; test: Insecticidal activity against Plutella xylostella, Airbrush spraying of cabbage leaf discs; conditions: foliar, 72 h; for pest or weed control at 0.156 µg/mL: dose 0.156 mg/L; for pest or weed control at 0.156 µg/mL / pest or weed control at 0.313 µg/mL: three days after administration, 3rd instar larvae, read-out: lethality rate to Plutella xylostella; for pest or weed control at 0.313 µg/mL: dose 0.313 mg/L; for mortality at 0.156 µg/mL: 0.156 mg/L, read-out: Mortality (%, 3 days after administration) 0.156 mg/L; for mortality at 0.156 µg/mL / mortality at 0.313 µg/mL / mortality at 0.625 µg/mL / mortality at 1.25 µg/mL: parallel comparative test; for mortality at 0.313 µg/mL: 0.313 mg/L, read-out: Mortality (%, 3 days after administration) 0.313 mg/L; for mortality at 0.625 µg/mL: 0.625 mg/L, read-out: Mortality (%, 3 days after administration) 0.625 mg/L; for mortality at 1.25 µg/mL: 1.25 mg/L, read-out: Mortality (%, 3 days after administration) 1.25 mg/L
Protocol: as §1, §2
as §3, with “Cabbage” for “Corn”, “made” for “cut”, “into leaf discs with a diameter of” for “into”, “by using a hole puncher;” for “long segments;”, “disc” for “segment”, “3rd” for “3nd”

[3] = system: Chilo suppressalis; test: Insecticidal activity against Chilo suppressalis, spraying of rice seedlings; conditions: 72 h; for pest or weed control at 0.5 µg/mL: dose 0.5 mg/L; for pest or weed control at 0.5 µg/mL / pest or weed control at 1 µg/mL: 3 days after administration, 3rd instar larvae, read-out: lethality rate to Chilo suppressalis; for pest or weed control at 1 µg/mL: dose 1 mg/L; for mortality at 0.25 µg/mL: 0.25 mg/L, read-out: Mortality (%, 3 days after administration) 0.25 mg/L; for mortality at 0.25 µg/mL / mortality at 0.5 µg/mL / mortality at 1 µg/mL / mortality at 5 µg/mL: parallel comparative test; for mortality at 0.5 µg/mL: 0.5 mg/L, read-out: Mortality (%, 3 days after administration) 0.5 mg/L; for mortality at 1 µg/mL: 1 mg/L, read-out: Mortality (%, 3 days after administration) 1 mg/L; for mortality at 5 µg/mL: 5 mg/L, read-out: Mortality (%, 3 days after administration) 5 mg/L
Protocol: as §1, §2
The determination method was as follows: 1) Preparation of rice seedlings: rice plants were cultivated in a plastic cup with a diameter of 4.5 cm and a height of 4 cm in a thermostatic chamber (temperature 26-28° C., relative humidity 60-80%, illumination 16 hL: 8 hD), and when the rice plants were developed to have 4-5 leaves, strong seedlings with identical growth vigour were selected for chemical treatment, and each treatment was replicated 3 times. 2) Preparation of insects to be tested: Chilo suppressalis, 3rd instar larvae, continuous lab rearing. 3) Inoculation of insects by spraying rice plant stems: The whole rice seedlings were sprayed evenly by using the spraying method, with 15 mL of the compound solution for each treatment. Firstly, the blank control was treated, and then the above procedure was replicated according to the order of test concentration from low to high. After rice seedlings were spray-treated, they were placed in the shade to dry, and the stems about 5 cm from the stem bases were cut off to feed the insects to be tested. Glass culture dishes with a diameter of 90 mm were prepared; each dish was padded with a filter paper at the bottom and added with water to keep moisture; about 5 rice stems were put into each dish and inoculated with 10 larvae, and each culture dish was then sealed with a non-woven and cultured in a thermostatic chamber. The number of residual live insects was examined 3 days after administration.

[4] = system: Tetranychus cinnabarinus; test: Acaricidal activity against Tetranychus cinnabarinus in greenhouse, bean seedling spraying; conditions: solution concentration 5 mg/L, adult mites, after 72 hours, read-out: lethality rate to Tetranychus cinnabarinus
Protocol: A bean seedling with two true leaves was taken for inoculating 30-40 adult mites of Tetranychus cinnabarinus. After examining the cardinal number, the whole seedling was treated by spraying with a hand-held sprayer, each treatment being replicated 3 times, and then placed in a standard observation room. The number of surviving mites was examined after 72 hours, and the mortality was calculated.

Compound | pest or weed control at 0.05 µg/mL [1] [%] | pest or weed control at 0.156 µg/mL [2] [%] | pest or weed control at 0.313 µg/mL [2] [%] | pest or weed control at 0.5 µg/mL [3] [%] | pest or weed control at 1 µg/mL [3] [%] | pest or weed control at 5 µg/mL [4] [%] | mortality at 0.156 µg/mL [2] [%] | mortality at 0.313 µg/mL [2] [%] | mortality at 0.625 µg/mL [2] [%] | mortality at 1.25 µg/mL [2] [%] | mortality at 0.25 µg/mL [3] [%] | mortality at 0.5 µg/mL [3] [%] | mortality at 1 µg/mL [3] [%] | mortality at 5 µg/mL [3] [%]
CCOCCC(=O)N(CC(=O)NCC(F)(F)F)C(=O)c1ccc(C2=NOC(c3cc(Cl)cc(Cl)c3)(C(F)(F)F)C2)cc1C (stereo not shown) [Compound 33] | > 90 | > 90 | > 90 | > 90 | > 90 | ≥ 90 | – | – | – | – | – | – | – | –
COC(=O)N(CC(=O)NCC(F)(F)F)C(=O)c1ccc(C2=NOC(c3cc(Cl)cc(Cl)c3)(C(F)(F)F)C2)cc1C (stereo not shown) [KC1, reference compound] | – | – | – | – | – | 0 | 20 | 36.7 | 70 | 100 | 0 | 0 | 0 | 10
COCC(=O)N(CC(=O)NCC(F)(F)F)C(=O)c1ccc(C2=NOC(c3cc(Cl)cc(Cl)c3)(C(F)(F)F)C2)cc1C (stereo not shown) [Compound 19] | > 90 | > 90 | > 90 | > 90 | > 90 | ≥ 90 | 100 | 100 | 100 | 100 | 86.7 | 100 | 100 | 100
Cc1cc(C2=NOC(c3cc(Cl)cc(Cl)c3)(C(F)(F)F)C2)ccc1C(=O)N(CC(=O)NCC(F)(F)F)C(=O)C1CC1 (stereo not shown) [Compound 1] | > 90 | – | > 90 | – | > 90 | ≥ 90 | – | – | – | – | 73.3 | 83.3 | 100 | 100
CCOCCC(=O)N(CC(=O)NCC(F)(F)F)C(=O)c1ccc(C2=NOC(c3cc(Cl)c(F)c(Cl)c3)(C(F)(F)F)C2)cc1C (stereo not shown) [Compound 34] | > 90 | > 90 | > 90 | – | > 90 | ≥ 90 | – | – | – | – | – | – | – | –
Cc1cc(C2=NOC(c3cc(Cl)c(F)c(Cl)c3)(C(F)(F)F)C2)ccc1C(=O)N(CC(=O)NCC(F)(F)F)C(=O)C1CC1 (stereo not shown) [Compound 2] | > 90 | – | > 90 | – | > 90 | ≥ 90 | – | – | – | – | – | – | – | –
CC(=O)N(CC(=O)NCC(F)(F)F)C(=O)c1ccc(C2=NOC(c3cc(Cl)cc(Cl)c3)(C(F)(F)F)C2)cc1C (stereo not shown) [KC2, reference compound] | – | – | – | – | – | – | – | – | – | – | 0 | 53.3 | 100 | 100
CCCCOCC(=O)N(CC(=O)NCC(F)(F)F)C(=O)c1ccc(C2=NOC(c3cc(Cl)cc(Cl)c3)(C(F)(F)F)C2)cc1C (stereo not shown) [Compound 27] | > 90 | > 90 | > 90 | > 90 | > 90 | ≥ 90 | – | – | – | – | – | – | – | –
COCCC(=O)N(CC(=O)NCC(F)(F)F)C(=O)c1ccc(C2=NOC(c3cc(Cl)cc(Cl)c3)(C(F)(F)F)C2)cc1C (stereo not shown) [Compound 31] | > 90 | > 90 | > 90 | > 90 | > 90 | ≥ 90 | 100 | 100 | 100 | 100 | 80 | 96.7 | 100 | 100
CCC(=O)N(CC(=O)NCC(F)(F)F)C(=O)c1ccc(C2=NOC(c3cc(Cl)cc(Cl)c3)(C(F)(F)F)C2)cc1C (stereo not shown) [KC3, reference compound] | – | – | – | – | – | – | – | – | – | – | 0 | 30 | 100 | 100
CCOCC(=O)N(CC(=O)NCC(F)(F)F)C(=O)c1ccc(C2=NOC(c3cc(Cl)cc(Cl)c3)(C(F)(F)F)C2)cc1C (stereo not shown) [Compound 21] | > 90 | > 90 | > 90 | > 90 | > 90 | ≥ 90 | – | – | – | – | – | – | – | –
CCOCC(=O)N(CC(=O)NCC(F)(F)F)C(=O)c1ccc(C2=NOC(c3cc(Cl)c(F)c(Cl)c3)(C(F)(F)F)C2)cc1C (stereo not shown) [Compound 22] | > 90 | > 90 | > 90 | – | > 90 | ≥ 90 | – | – | – | – | – | – | – | –
